Assay results reported in patent US20250275953A1, “VODOBATINIB FOR REDUCING PROGRESSION OF PARKINSON'S DISEASE” (Sun Pharma Advanced Research Company Ltd., priority 2022, published 2025).

Test: CSF concentration, Parkinson's disease patients, open label part, Day 14
Format: in vivo, human
Settings: for mean CSF level: 2-3 h post dose, Day 14, PD patients; for Concentration in CSF Mean (SD): Day 14, 2-3 h post dose, PD patients open label; for Concentration in CSF Geo. Mean / Concentration in CSF Median: Day 14, PD patients open label
Method: A single CSF sample was collected at either 2 h or 3 h following the dose on Day 14.
Study NCT02970019 was a multi-center safety and tolerability study of vodobatinib in 60 subjects with Parkinson's Disease (diagnosed with PD according to the Brain Bank criteria of the United Kingdom Parkinson's Disease Society) who were randomized to receive placebo or various daily doses of vodobatinib for 14 days in a parallel assignment design with quadruple masking (participant, care provider, investigator, and outcomes assessor.) In study NCT02970019, consecutive cohorts of up to eight subjects received once-daily doses of 6, 12, 18, 24, 48, 96, 192, or 384 mg of study drug for 14 days, with six subjects in each cohort on vodobatinib and two subjects in each cohort on placebo. An alternating panel design was used such that subjects in the 6 and 18 mg cohorts were the same, and subjects in the 12 and 24 mg cohorts were the same, thus yielding 48 total individuals enrolled in the eight cohorts. There was a wash-out period of 14 days between each were studied in sequential ascending dose cohorts. In parallel to the double-blind cohorts, up to four subjects per dose cohort were enrolled in an open-label study of vodobatinib to receive 24, 48 or 96 mg once-daily doses of for 14 days. These subjects underwent lumbar puncture to collect CSF on Day 1, and 2-3 h after the last morning dose on Day 14. PK blood draws (for both double-blind and open label) were collected at pre-dose (˜30 min) and at 0.5, 1, 2, 4, 8, 12 and 24 h post-dose on Days 1 and 14.
Vodobatinib levels in plasma and CSF were determined using a fully validated LC-MS/MS assay with lower limits of quantitation (LLOQ) of 2.5 ng/mL and 0.05 ng/mL, respectively. PK analyses were performed using standard non-compartmental analysis with Phoenix® WinNonlin® software Version 6.4 to estimate the PK parameters Cmax, Tmax, AUCtau and Css. Descriptive statistics were used to characterize vodobatinib concentrations and PK parameters in plasma and CSF. Statistical calculations were performed with SAS software (Version 9.4, SAS Institute, Cary, North Carolina, USA).

Cc1ccc(C(=O)NNC(=O)c2c(C)cccc2Cl)cc1C#Cc1cnc2ccccc2c1 [N′-(2-chloro-6-methylbenzoyl)-4-methyl-3-[2-(3-quinolyl)ethynyl]-benzohydrazide]
mean CSF level (24 mg): 1.5 nM | Concentration in CSF Mean (SD) (24 mg): 0.6550 (0.2447) ng/mL | Concentration in CSF Mean (SD) (24 mg, listed as vodobatinib): 0.66 ng/mL | Concentration in CSF Geo. Mean (24 mg): 0.6317 ng/mL | Concentration in CSF Median (24 mg): 0.6550 ng/mL | mean CSF level (48 mg): 1.5 nM | Concentration in CSF Mean (SD) (48 mg): 0.6683 (0.744) ng/mL | Concentration in CSF Mean (SD) (48 mg, listed as vodobatinib): 0.67 ng/mL | Concentration in CSF Geo. Mean (48 mg): 0.8868 ng/mL | Concentration in CSF Median (48 mg): 0.5350 ng/mL | mean CSF level (96 mg): 2.4 nM | Concentration in CSF Mean (SD) (96 mg): 1.1193 (0.4533) ng/mL | Concentration in CSF Mean (SD) (96 mg, listed as vodobatinib): 1.1 ng/mL | Concentration in CSF Geo. Mean (96 mg): 1.0482 ng/mL | Concentration in CSF Median (96 mg): 1.0850 ng/mL
